Reference: patent US9376420B2 (YUHAN CORPORATION, priority 2012, dated 2016)

Biological target: T1, human LXRβ (Homo sapiens, UniProt P55055)
T1 construct: expressed in transfected cells; host or cells: HEK293 cells (ATCC CRL-1573), transient transfection with pFA-hLXRβ/GAL4 and pUAS
T1 sequence (P55055 222-460 limits assumed): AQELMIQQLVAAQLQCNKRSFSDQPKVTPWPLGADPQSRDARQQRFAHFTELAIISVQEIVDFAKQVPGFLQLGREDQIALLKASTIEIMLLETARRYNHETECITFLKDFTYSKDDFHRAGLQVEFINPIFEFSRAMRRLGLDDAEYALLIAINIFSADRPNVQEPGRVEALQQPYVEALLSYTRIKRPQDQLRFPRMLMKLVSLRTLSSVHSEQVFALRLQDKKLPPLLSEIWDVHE
Experiment: Assay for Transcriptional Activity of LXRβ (GAL4-hLXRβ LBD luciferase reporter, transient transfection)
Assay type: cell-based
Conditions: HEK293 cells transfected with pFA-hLXRβ/GAL4 and pUAS, 24 hours; for Emax: fold value in comparison with the control (DMSO-treated group); for EC50: increase of transcriptional activity of LXRβ, average of three independent tests
Description: The ligand-binding domain (LBD) cDNA of human LXRβ was inserted into an expression vector (pFA, Stratagene, USA) site adjacent to the yeast GAL4 transcription factor DNA binding domain to prepare an expression construct (pFA-hLXRβ/GAL4) (Willey et al., Genes & Development 9 1033-1045 (1995). The GAL4-responsive luciferase reporter plasmid, i.e., pUAS (Stratagene, USA), contained five copies of the GAL4 response element placed adjacent to the promoter and the luciferase reporter gene. The pFA-hLXRβ/GAL4 and pUAS were introduced into mammalian cells through transient transfection, followed by measuring the transcriptional activity of LXRβ.
HEK293 cells (human kidney cells, sATCC, CRL-1573) were incubated at a T-75 flask containing a DMEM supplemented with 10% fetal bovine serum (FBS) in a 37° C., until they reach about 70˜80% confluency. The culture media containing the cells was added to each well of a 96-well plate in a density of 5×10^4 cells per well. The pFA-hLXRβ/GAL4 and pUAS was transfected to the cells using a cationic-lipid transfection reagent (Lipofectamine™, Invitrogen), through culturing at 37° C. for 3 hours for transient transfection according to the manufacturer's instruction. The test compounds were dissolved in dimethyl sulfoxide (DMSO) in the concentrations of 50, 30, 10, 3, 1, 0.3, 0.1, 0.03, and 0.01 μM and then cells were treated with the prepared compound-containing solution (100 μl). The cells were incubated at 37° C. for 24 hours. After removal of the medium from each well, the lysis buffer (25 mM Tricine pH7.8, 2 mM DTT, 2 mM EGTA, 10% glycerol, 1% Triton X-100) was added with the amount of 20 μl per each well, and the plate was stirred at room temperature for 15 minutes. The luciferase reagent (prepared by adding 10 ml of the luciferase buffer (Promega) to 1 vial of the luciferase substrate (Promega)) was added to each well with the amount of 100 μl per well, followed by assaying with a luminometer according to the manufacturer's instruction.
The dose-response curve for calculating the EC50 values of the test compounds on the increase of transcriptional activity of LXRβ was prepared using the known LXR agonist (i.e., N-(2,2,2-trifluoro-ethyl)-N-[4-(2,2,2-trifluoro-1-hydroxy-1-trifluoromethyl-ethyl)-phenyl]-benzenesulfonamide) as a positive control and the vehicle (DMSO) as a negative control. The dose-response curve was produced from the 9-point curve having different concentrations at a 1/2 log unit. The EC50 value of a test compound, which is defined as a concentration for initiating the reaction corresponding to the half value between the Top value (i.e., the maximum value) and the Bottom value (baseline), was calculated according to the following equation. Y=Bottom+(Top-Bottom)/(1+10^((log EC50-X)*Hill Slope)).
In the above equation, Y is the observed value; X is the log concentration; Hill Slope is the slope of the curve; and Top and Bottom are the maximum value of test compound and the baseline value, respectively.
The following tables 1 and 2 show the EC50 values of the test compounds measured as in the above. In the tables 1 and 2, each EC50 value represents an average value obtained from three independent tests.

SMILES | Emax [fold] | EC50 [nM]
OC(C1=NN(c2ccccc2Cl)C(c2ccc(-c3cc4ccccc4o3)cc2)C1)(C(F)(F)F)C(F)(F)F (stereo not shown) [Example 262, 5-(4-benzofuran-2-yl-phenyl)-1-(2-chloro-phenyl)-3-[di-(trifluoromethyl)-hydroxy-methyl]-4,5-dihydro-1H-pyrazole] | 92 | 6860
Cc1ncccc1-c1cccc(C2CC(C(F)(F)C(F)(F)F)=NN2c2ccc(F)cc2F)c1 (stereo not shown) [Example 71, 1-(2,4-difluoro-phenyl)-5-(3-(2-methyl-pyridin-3-yl)-phenyl)-3-pentafluoroethyl-4,5-dihydro-1H-pyrazole] | 20 | 1230
O=S(=O)(N1CCCC1)N1CCN(c2ccc(C3CC(C(O)(C(F)(F)F)C(F)(F)F)=NN3c3ccccc3Cl)cc2)CC1 (stereo not shown) [Example 319, 1-(2-chloro-phenyl)-5-{4-[4-(pyrrolidine-1-sulfonyl)-piperazin-1-yl]-phenyl}-3-[di-(trifluoromethyl)-hydroxy-methyl]-4,5-dihydro-1H-pyrazole] | 39 | 1830
OCc1ccc(-c2cccc(C3CC(C(F)(F)C(F)(F)F)=NN3c3ccc(F)cc3F)c2)nc1 (stereo not shown) [Example 91, 1-(2,4-difluoro-phenyl)-5-[3-(5-hydroxymethyl-pyridin-2-yl)-phenyl]-3-pentafluoroethyl-4,5-dihydro-1H-pyrazole] | 44 | 1460
CSc1ccc(-c2ccc(F)c(C3CC(C(F)(F)C(F)(F)F)=NN3c3ccc(F)cc3F)c2)cn1 (stereo not shown) [Example 140, 1-(2,4-difluoro-phenyl)-5-[6-fluoro-3-(6-methylsulfanyl-pyridin-3-yl)-phenyl]-3-pentafluoroethyl-4,5-dihydro-1H-pyrazole] | 143 | 1770
CC(C)S(=O)(=O)N1CCN(c2ccc(C3CC(C(O)(C(F)(F)F)C(F)(F)F)=NN3c3ccccc3Cl)cc2)CC1 (stereo not shown) [Example 314, 1-(2-chloro-phenyl)-5-[4-(4-isopropylsulfonyl-piperazin-1-yl)-phenyl]-3-[di-(trifluoromethyl)-hydroxy-methyl]-4,5-dihydro-1H-pyrazole] | 59 | 883
Fc1ccc(N2N=C(C(F)(F)C(F)(F)F)CC2c2cccc(-c3ccccc3)c2)c(F)c1 (stereo not shown) [Example 94, 5-biphenyl-3-yl-1-(2,4-difluoro-phenyl)-3-pentafluoroethyl-4,5-dihydro-1H-pyrazole] | 27 | 19000
OC(C1=NN(c2ccccc2Cl)C(c2ccc(-c3ccoc3)cc2)C1)(C(F)(F)F)C(F)(F)F (stereo not shown) [Example 257, 1-(2-chloro-phenyl)-5-(4-furan-3-yl-phenyl)-3-[di-(trifluoromethyl)-hydroxy-methyl]-4,5-dihydro-1H-pyrazole] | 57 | 1840
CC(C)CS(=O)(=O)N1CC=C(c2ccc(C3CC(C(O)(C(F)(F)F)C(F)(F)F)=NN3c3ccccc3Cl)cc2)CC1 (stereo not shown) [Example 302, 1-(2-chloro-phenyl)-5-{4-[1-(2-methyl-propane-1-sulfonyl)-1,2,3,6-tetrahydropyridin-4-yl]-phenyl}-3-[di-(trifluoromethyl)-hydroxy-methyl]-4,5-dihydro-1H-pyrazole] | 45 | 849
CCOc1ccc(-c2ccc(C3CC(C(O)(C(F)(F)F)C(F)(F)F)=NN3c3ccccc3Cl)cc2)cn1 (stereo not shown) [Example 269, 1-(2-chloro-phenyl)-5-[4-(6-ethoxy-pyridin-3-yl)-phenyl]-3-[di-(trifluoromethyl)-hydroxy-methyl]-4,5-dihydro-1H-pyrazole] | 44 | 7930
CSc1ccc(-c2cccc(C3CC(C(F)(F)C(F)(F)F)=NN3c3ccccc3Cl)c2)cc1 (stereo not shown) [Example 105, 1-(2-chloro-phenyl)-5-(4′-methylsulfanyl-biphenyl-3-yl)-3-pentafluoroethyl-4,5-dihydro-1H-pyrazole] | 55 | 6310

The next compounds have a lower EC50 than those just listed; values first:

Emax [fold] | EC50 [nM] | SMILES
25 | 60 | CS(=O)(=O)c1c(F)cc(-c2ccc(C3CC(C(O)(C(F)(F)F)C(F)(F)F)=NN3c3ccc(F)cc3F)cc2)cc1F (stereo not shown) [Example 388, 1-(2,4-difluoro-phenyl)-5-(3′,5′-difluoro-4′-methanesulfonyl-biphenyl-4-yl)-3-[di-(trifluoromethyl)-hydroxy-methyl]-4,5-dihydro-1H-pyrazole]
75 | 192 | CS(=O)(=O)c1cc(F)c(-c2cccc(C3CC(C(F)(F)C(F)(F)F)=NN3c3ccc(F)cc3F)c2)cc1F (stereo not shown) [Example 68, 5-(2′,5′-difluoro-4′-methanesulfonyl-biphenyl-3-yl)-1-(2,4-difluoro-phenyl)-3-pentafluoroethyl-4,5-dihydro-1H-pyrazole]
103 | 692 | CS(=O)(=O)c1cccc(-c2ccc(C3CC(C(F)(F)C(F)(F)F)=NN3c3ccc(F)cc3F)cc2)c1 (stereo not shown) [Example 18, 1-(2,4-difluoro-phenyl)-5-(3′-methanesulfonyl-biphenyl-4-yl)-3-pentafluoroethyl-4,5-dihydro-1H-pyrazole]
64 | 778 | CS(=O)(=O)N1CCCN(c2ccc(C3CC(C(O)(C(F)(F)F)C(F)(F)F)=NN3c3ccccc3Cl)cc2)CC1 (stereo not shown) [Example 322, 1-(2-chloro-phenyl)-5-[4-(4-methanesulfonyl-homopiperazin-1-yl)-phenyl]-3-[di-(trifluoromethyl)-hydroxy-methyl]-4,5-dihydro-1H-pyrazole]
44 | 157 | CN(C)S(=O)(=O)N1CC=C(c2cccc(C3CC(C(O)(C(F)(F)F)C(F)(F)F)=NN3c3ccccc3Cl)c2)CC1 (stereo not shown) [Example 240, 1-(2-chloro-phenyl)-5-[3-(1-dimethylsulfamoyl-1,2,3,6-tetrahydropyridin-4-yl)-phenyl]-3-[di-(trifluoromethyl)-hydroxy-methyl]-4,5-dihydro-1H-pyrazole]
59 | 312 | CC(C)Oc1ccccc1-c1ccc(C2CC(C(O)(C(F)(F)F)C(F)(F)F)=NN2c2ccccc2Cl)cc1F (stereo not shown) [Example 367, 1-(2-chloro-phenyl)-5-(2-fluoro-2′-isopropoxy-biphenyl-4-yl)-3-[di-(trifluoromethyl)-hydroxy-methyl]-4,5-dihydro-1H-pyrazole]
66 | 304 | CN(C)S(=O)(=O)N1CC=C(c2ccc(C3CC(C(O)(C(F)(F)F)C(F)(F)F)=NN3c3ccccc3Cl)cc2)CC1 (stereo not shown) [Example 305, 1-(2-chloro-phenyl)-5-{4-[1-dimethylsulfamoyl-1,2,3,6-tetrahydropyridin-4-yl]-phenyl}-3-[di-(trifluoromethyl)-hydroxy-methyl]-4,5-dihydro-1H-pyrazole]
71 | 49 | O=C(Cc1ccccc1)N1CC=C(c2cccc(C3CC(C(O)(C(F)(F)F)C(F)(F)F)=NN3c3ccccc3Cl)c2)CC1 (stereo not shown) [Example 236, 1-(2-chloro-phenyl)-5-[3-(1-phenylacetyl-1,2,3,6-tetrahydropyridin-4-yl)-phenyl]-3-[di-(trifluoromethyl)-hydroxy-methyl]-4,5-dihydro-1H-pyrazole]
106 | 373 | CS(=O)(=O)N1CC=C(c2ccc(C3CC(C(O)(C(F)(F)F)C(F)(F)F)=NN3c3ccccc3Cl)s2)CC1 (stereo not shown) [Example 418, 1-(2-chloro-phenyl)-5-[5-(1-methanesulfonyl-1,2,3,6-tetra hydropyridin-4-yl)-thiophen-2-yl]-3-[di-(trifluoromethyl)-hydroxy-methyl]-4,5-dihydro-1H-pyrazole]
